Assay [1] addresses T1, Pseudomonas aeruginosa LpxC enzyme (Pseudomonas aeruginosa, UniProt P47205).
T1 construct: made in house; host or cells: E. coli
T1 sequence (P47205 1-303): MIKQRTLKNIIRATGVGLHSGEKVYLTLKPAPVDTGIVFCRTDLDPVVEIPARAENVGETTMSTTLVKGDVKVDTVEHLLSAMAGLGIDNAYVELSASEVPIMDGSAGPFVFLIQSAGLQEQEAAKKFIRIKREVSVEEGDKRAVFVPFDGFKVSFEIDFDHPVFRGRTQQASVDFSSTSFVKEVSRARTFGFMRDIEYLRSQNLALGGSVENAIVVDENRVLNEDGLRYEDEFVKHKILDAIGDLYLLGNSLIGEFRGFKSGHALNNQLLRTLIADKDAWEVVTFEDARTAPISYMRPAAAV
Kind of assay: IC50 assay, LpxC enzyme from P. aeruginosa (PA LpxC enzyme IC50). It counts as biochemical. Particulars: LpxC enzyme 0.1 nM, 25° C., 1 hour. In a few lines: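 The LpxC reaction ran 1 hour and was stopped with HCl. Substrate-to-product conversion was measured by RapidFire mass spectrometry, and IC50 values were calculated from percent conversion relative to a no-enzyme control.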

For assay [2], the system named is Escherichia coli EC-1: VOGEL, mouse virulent. The assay is described as follows: MIC determination, EC-1. It counts as cell-based. Conditions: Escherichia coli, read-out: EC-1 (MIC), Table 2, lower of duplicate values. In a few lines: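 MIC against mouse-virulent E. coli EC-1 (VOGEL) was determined by CLSI M7-A8 broth dilution with 2-fold drug increments and overnight incubation. The MIC is the lowest concentration with no visible growth versus drug-free control. Tests were run in duplicate and the lower value reported if within 2-fold, with QC organisms and reference drugs in each run.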

The subject of assay [3] is Pseudomonas aeruginosa UI-18: wild-type (PA-7). The assay is described as follows: MIC determination, PA-7. It counts as cell-based. Particulars: Table 2, lower of duplicate values. As for the experimental part: The in vitro antibacterial activity of compounds described in the Examples was evaluated by minimum inhibitory concentration (MIC) testing according to Clinical and Laboratory Standards Institute (CLSI). See: Clinical and Laboratory Standards Institute. Methods for Dilution Antimicrobial Susceptibility Tests for Bacteria that Grow Aerobically; Approved Standard-Eighth Edition. CLSI document M7-A8 [ISBN 1-56238-689-1]. Clinical and Laboratory Standards Institute, 940 West Valley Road, Suite 1400, Wayne, Pa. 19087-1898 USA, 2006; also Clinical and Laboratory Standards Institute. Performance Standards for Antimicrobial Susceptibility Testing; Twentieth Informational Supplement. CLSI document M100-S20 [ISBN 1-56238-716-2]. Clinical and Laboratory Standards Institute.
The MIC determination is a standard laboratory method for evaluating the antibacterial activity of a compound. The MIC represents the lowest drug concentration that inhibits visible growth of bacteria following overnight incubation. […] Typically, the drug concentration range is broken down into 2-fold increments (e.g. 0.06 μg/mL, 0.12 μg/mL. 0.25 μg/mL, 0.50 μg/mL, 1.0 μg/mL, etc.) and the various drug concentrations are all individually incubated overnight with approximately the same number of bacteria. The MIC is then determined by visually inspecting the drug effect at each concentration, and identifying the lowest drug concentration that has inhibited bacterial growth as compared to the drug free control. Typically, bacteria continue to grow at drug concentrations lower than the MIC and don't grow at concentrations at and above the MIC.
The MIC values described in Table 2 and 3 below were derived from assays wherein each test compound was evaluated in duplicate. In cases where the duplicate values varied by 0-2-fold, the lower of the two values was reported below. Generally speaking, if the duplicate values varied by more than 2-fold, the assay was considered non-valid and was repeated until the variation between duplicate runs was ≦2-fold. In line with the CLSI guidelines referred to above, both control organisms and reference compounds were utilized in each MIC assay to provide proper quality control. MIC values generated with these control organisms and reference compounds were required to fall within a defined range for the assay to be considered valid and be included herein. Those skilled in the art will recognize that MIC values can and do vary from experiment to experiment. Generally speaking, it should be recognized that MIC values often vary +/−2-fold from experiment to experiment. While a single MIC is reported for each compound and each microorganism, the reader should not conclude that each compound was only tested once. Several of the compounds were subjected to multiple tests. The data reported in Tables 2 and 3 is reflective of the compounds relative activity and different MICs may have been generated on these occasions in line with the guidelines described above.
The following bacterial strains were used in these MIC determinations:
1) Pseudomonas aeruginosa UI-18: Wild-type, labeled as PA-7 in Tables 2 and 3;

In assay [4] the test system is Acinetobacter baumannii/haemolyticus, multidrug-resistant clinical isolate (AB-3167). The assay is described as follows: MIC determination, AB-3167. The assay is classed as cell-based. Particulars: Table 2, lower of duplicate values. In a few lines: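 Broth dilution MIC per CLSI M7-A8, 2-fold drug series, overnight incubation, lowest concentration visibly inhibiting growth against drug-free control. Run in duplicate, lower value reported; duplicates differing >2-fold repeated; QC strains and reference compounds required in range.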

In general, IC50 refers to the concentration that gives 50% inhibition. The MIC is the least concentration at which growth counts as inhibited.

The structures appear in SMILES notation. ≈ marks a conversion by molar mass, not a printed value. Read-outs that look alike come from different tables or passages of the source. A value given as a limit tells only on which side of the number the result lay.

`C[C@@](CCn1cc(F)c(-c2ccc3c(c2)CCO3)cc1=O)(C(=O)NO)S(C)(=O)=O` [Example 5, (2R)-4-[4-(2,3-Dihydro-1-benzofuran-5-yl)-5-fluoro-2-oxopyridin-1(2H)-yl]-N-hydroxy-2-methyl-2-(methylsulfonyl)butanamide]: the IC50 in assay [1] (Table 2, read-out: PA:IC50) was 0.822 nM. Moreover, the values for the MIC in assay [2], in assay [3] and in assay [4] were 1 µg/mL (≈ 2.36 µM), 1 µg/mL (≈ 2.36 µM) and > 64 µg/mL, respectively.
Take `C[C@@](CCn1cc(F)c(-c2ccc(F)c(F)c2)cc1=O)(C(=O)NO)S(C)(=O)=O` [Example 6, (2R)-4-[4-(3,4-Difluorophenyl)-5-fluoro-2-oxopyridin-1(2H)-yl]-N-hydroxy-2-methyl-2-(methylsulfonyl)butanamide]: in assay [1] (Table 2, read-out: PA:IC50), the half-inhibitory concentration (IC50) was found to be 0.833 nM. Besides, the MIC in assay [2] was 1 µg/mL (≈ 2.39 µM); in assay [3], 0.5 µg/mL (≈ 1.2 µM); in assay [4] it was > 64 µg/mL.
Taken in the same sequence, the figures for `C[C@@](CCn1cc(F)c(-c2ccc(OCC(F)(F)F)cc2)cc1=O)(C(=O)NO)S(C)(=O)=O` [Example 7, (2R)-4-{5-Fluoro-2-oxo-4-[4-(2,2,2-trifluoroethoxy)phenyl]pyridin-1(2H)-yl}-N-hydroxy-2-methyl-2-(methylsulfonyl)butanamide] were 0.576 nM, 0.25 µg/mL (≈ 0.52 µM), 1 µg/mL (≈ 2.08 µM) and > 64 µg/mL.
On the same counts, the results for `C[C@@](CCn1cc(F)c(-c2ccc3c(c2)CCCO3)cc1=O)(C(=O)NO)S(C)(=O)=O` [Example 8, (2R)-4-[4-(3,4-Dihydro-2H-chromen-6-yl)-5-fluoro-2-oxopyridin-1(2H)-yl]-N-hydroxy-2-methyl-2-(methylsulfonyl)butanamide] are 0.377 nM, 0.5 µg/mL (≈ 1.14 µM), 1 µg/mL (≈ 2.28 µM) and > 64 µg/mL.
The compound `CSc1ccc(-c2cc(=O)n(CC[C@](C)(C(=O)NO)S(C)(=O)=O)cc2F)cc1` [Example 9, (2R)-4-{5-Fluoro-4-[4-(methylthio)phenyl]-2-oxopyridin-1(2H)-yl}-N-hydroxy-2-methyl-2-(methylsulfonyl)butanamide] had a concentration for half-maximal inhibition (IC50) in assay [1] (PA:IC50, Table 2) of 0.51 nM. Besides, the MIC in assay [2] is 0.25 µg/mL (≈ 0.583 µM); in assay [3], 0.5 µg/mL (≈ 1.17 µM); in assay [4], > 64 µg/mL.
Take `CCOc1ccc(-c2cc(=O)n(CC[C@](C)(C(=O)NO)S(C)(=O)=O)cc2F)cc1` [Example 10, (2R)-4-[4-(4-Ethoxyphenyl)-5-fluoro-2-oxopyridin-1(2H)-yl]-N-hydroxy-2-methyl-2-(methylsulfonyl)butanamide]: the IC50 in assay [1] (Table 2, read-out: PA:IC50) was found to be 0.823 nM. In addition, the minimal inhibitory concentration (MIC) in assay [2] is 0.25 µg/mL (≈ 0.586 µM); in assay [3], 1 µg/mL (≈ 2.34 µM); in assay [4], > 64 µg/mL.
Taken in the same sequence, the figures for `CCCc1ccc(-c2cc(=O)n(CC[C@](C)(C(=O)NO)S(C)(=O)=O)cc2F)cc1` [Example 11, (2R)-4-[5-Fluoro-2-oxo-4-(4-propylphenyl)pyridin-1(2H)-yl]-N-hydroxy-2-methyl-2-(methylsulfonyl)butanamide] were 0.482 nM, 0.125 µg/mL (≈ 0.294 µM), 0.5 µg/mL (≈ 1.18 µM) and > 64 µg/mL.
As for `C[C@@](CCn1cc(F)c(-c2ccc(S(F)(F)(F)(F)F)cc2)cc1=O)(C(=O)NO)S(C)(=O)=O` [Example 12, (2R)-4-{5-Fluoro-2-oxo-4-[4-(pentafluoro-6λ-sulfanyl)phenyl]pyridin-1(2H)-yl}-N-hydroxy-2-methyl-2-(methylsulfonyl)butanamide], the half-inhibitory concentration (IC50) in assay [1] (Table 2, read-out: PA:IC50) is 1.14 nM. The minimal inhibitory concentration (MIC) was 4 µg/mL (≈ 7.87 µM) in assay [2], 4 µg/mL (≈ 7.87 µM) in assay [3] and > 64 µg/mL in assay [4].
Take `Cc1cccc(-c2cc(=O)n(CC[C@](C)(C(=O)NO)S(C)(=O)=O)cc2F)c1` [Example 13, (2R)-4-[5-Fluoro-4-(3-methylphenyl)-2-oxopyridin-1(2H)-yl]-N-hydroxy-2-methyl-2-(methylsulfonyl)butanamide]: the half-maximal inhibitory concentration (IC50) in assay [1] (Table 2, read-out: PA:IC50) stood at 1.05 nM. Besides, the figures for the MIC in assay [2], in assay [3] and in assay [4] were 1 µg/mL (≈ 2.52 µM), 1 µg/mL (≈ 2.52 µM) and > 64 µg/mL, respectively.
With `Cc1cc(-c2cc(=O)n(CC[C@](C)(C(=O)NO)S(C)(=O)=O)cc2F)ccc1F` [Example 14, (2R)-4-[5-Fluoro-4-(4-fluoro-3-methylphenyl)-2-oxopyridin-1(2H)-yl]-N-hydroxy-2-methyl-2-(methylsulfonyl)butanamide], in assay [1] (Table 2, read-out: PA:IC50), the IC50 was determined as 0.758 nM. The minimum inhibitory concentration (MIC) is 0.5 µg/mL (≈ 1.21 µM) in assay [2], 0.5 µg/mL (≈ 1.21 µM) in assay [3] and > 64 µg/mL in assay [4].
For the compound `C[C@@](CCn1cc(F)c(-c2ccc(OC3COC3)cc2)cc1=O)(C(=O)NO)S(C)(=O)=O` [Example 15, (2R)-4-{5-fluoro-4-[4-(oxetan-3-yloxy)phenyl]-2-oxopyridin-1(2H)-yl}-N-hydroxy-2-methyl-2-(methylsulfonyl)butanamide], the concentration for half-maximal inhibition (IC50) in assay [1] (Table 2, read-out: PA:IC50) amounted to 2.05 nM. Further, the MIC was 16 µg/mL (≈ 35.2 µM) in assay [2], 16 µg/mL (≈ 35.2 µM) in assay [3] and > 64 µg/mL in assay [4].
On to `C[C@@](CCn1cc(F)c(-c2ccc(Cl)cc2F)cc1=O)(C(=O)NO)S(C)(=O)=O` [Example 16, (2R)-4-[4-(4-Chloro-2-fluorophenyl)-5-fluoro-2-oxopyridin-1(2H)-yl]-N-hydroxy-2-methyl-2-(methylsulfonyl)butanamide], for which the IC50 in assay [1] (Table 2, read-out: PA:IC50) worked out at 0.336 nM. In addition, the results for the minimum inhibitory concentration (MIC) in assay [2], in assay [3] and in assay [4] were 0.25 µg/mL (≈ 0.575 µM), 0.5 µg/mL (≈ 1.15 µM) and > 64 µg/mL, respectively.
On the same counts, the results for `COc1cccc(-c2cc(=O)n(CC[C@](C)(C(=O)NO)S(C)(=O)=O)cc2F)c1F` [Example 17, (2R)-4-[5-fluoro-4-(2-fluoro-3-methoxyphenyl)-2-oxopyridin-1(2H)-yl]-N-hydroxy-2-methyl-2-(methylsulfonyl)butanamide] are 0.5 nM, 0.5 µg/mL (≈ 1.16 µM), 1 µg/mL (≈ 2.32 µM) and > 64 µg/mL.
In the case of `C[C@@](CCn1cc(F)c(-c2ccc(OC[C@H]3CC[C@H](O)CC3)cc2)cc1=O)(C(=O)NO)S(C)(=O)=O` [Example 18, (2R)-4-[5-Fluoro-4-{4-[(trans-4-hydroxycyclohexyl)methoxy]phenyl}-2-oxopyridin-1(2H)-yl]-N-hydroxy-2-methyl-2-(methylsulfonyl)butanamide], the IC50 in assay [1] (Table 2, read-out: PA:IC50) amounted to 0.463 nM. The minimal inhibitory concentration (MIC) is 0.125 µg/mL (≈ 0.245 µM) in assay [2], 1 µg/mL (≈ 1.96 µM) in assay [3] and > 64 µg/mL in assay [4].
On the same counts, the results for `COc1ccc(-c2cc(=O)n(CC[C@](C)(C(=O)NO)S(C)(=O)=O)cc2F)cc1F` [Example 19, (2R)-4-[5-Fluoro-4-(3-fluoro-4-methoxyphenyl)-2-oxopyridin-1(2H)-yl]-N-hydroxy-2-methyl-2-(methylsulfonyl)butanamide] are 0.879 nM, 2 µg/mL (≈ 4.65 µM), 1 µg/mL (≈ 2.32 µM) and > 64 µg/mL.
As to `C[C@@](CCn1cc(F)c(-c2ccc(-c3ncccn3)cc2)cc1=O)(C(=O)NO)S(C)(=O)=O` [Example 20, (2R)-4-[5-Fluoro-2-oxo-4-(4-pyrimidin-2-ylphenyl)pyridin-1(2H)-yl]-N-hydroxy-2-methyl-2-(methylsulfonyl)butanamide], the IC50 in assay [1] (Table 2, read-out: PA:IC50) was 0.945 nM. For the same compound, the values for the MIC in assay [2], in assay [3] and in assay [4] were 0.125 µg/mL (≈ 0.271 µM), 1 µg/mL (≈ 2.17 µM) and > 64 µg/mL, respectively.

Values taken from patent publication US8624034B2, “Fluoro-pyridinone derivatives useful as antibacterial agents” (Pfizer Inc., priority 2011, dated 2014).
